Experimental findings from ChEMBL document CHEMBL5360657, “Discovery of the TLR7/8 Antagonist MHV370 for Treatment of Systemic Autoimmune Diseases” (ACS Med Chem Lett, 2023) are described below.

The nature of series [1]: Cmax in mouse at 20 mg/kg, po. The class given is ADME, organism-based. Also on record: dose 20 mg/kg, route po. As to conditions: in vivo.
Series [2] in a line: Inhibition of CYP2D9 (unknown origin). The class given is ADME, Homo sapiens.
A short description of series [3]: Clast in mouse at 20 mg/kg, po. The class given is ADME, organism-based. As to conditions: in vivo, read-out: Clast.
Series [4] addresses T1, Nuclear receptor subfamily 1 group I member 2 (Homo sapiens, UniProt O75469).
T1 sequence (O75469 whole entry): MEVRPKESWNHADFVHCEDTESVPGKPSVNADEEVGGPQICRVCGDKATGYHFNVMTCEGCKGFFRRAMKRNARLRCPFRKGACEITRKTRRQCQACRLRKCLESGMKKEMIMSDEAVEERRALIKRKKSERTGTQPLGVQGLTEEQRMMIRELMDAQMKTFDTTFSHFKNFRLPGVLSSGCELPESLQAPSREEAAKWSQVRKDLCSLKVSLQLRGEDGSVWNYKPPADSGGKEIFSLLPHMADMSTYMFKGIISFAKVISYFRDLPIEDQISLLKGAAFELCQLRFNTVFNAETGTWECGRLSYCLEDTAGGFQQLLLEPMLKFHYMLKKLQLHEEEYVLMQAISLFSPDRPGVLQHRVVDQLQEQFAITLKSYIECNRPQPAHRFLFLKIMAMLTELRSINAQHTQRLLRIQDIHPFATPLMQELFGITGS
The experiment in a line: Induction of PXR (unknown origin) relative to control.

The nature of series [5]: Volume of distribution at steady state in mouse at 3 mg/kg, iv. Type of series: ADME, organism-based. As to conditions: in vivo, read-out: Vdss.
For series [6], the target named is Toll-like receptor 7 (Mus musculus) (UniProt P58681). Kind of series: In vivo antagonist activity against TLR7 in po dosed mouse assessed as suppression of TNF level measured at 3 hrs by LC-MS/MS analysis. Conditions: dose 1-30 mg/kg.
Series [7] has the same target. The experiment in a line: In vivo antagonist activity against TLR7 in po dosed mouse assessed as suppression of IFN alpha level measured at 3 hrs by LC-MS/MS analysis. Conditions: dose 1-30 mg/kg.

Molecules are shown by their SMILES. Some results are limits rather than exact numbers.

As for `Cc1cc(N2CCc3c(c(C)nn3CC34CCC(N)(CC3)CC4)C2)c2cnn(C)c2n1`, in series [1], the concentration peaked (Cmax) at 321 nM. In series [2], the IC50 is greater than 25 µM. Also, in series [3], the concentration was found to be 35 nM. Further, in series [4], the Activity is listed as 7.9%. Besides, the Vd in series [5] stood at 4.1 L/kg.
Consider `Cc1cc(N2CCc3c(c(C)nn3CC34CCC(NC(=O)[C@@H]5COCCN5)(CC3)CC4)C2)c2cnn(C)c2n1` [MHV-370], for which the Activity result in series [6] and in series [7] was “Dose-Dependent Effect” each time.

The term Cmax denotes the highest concentration seen after dosing. A word on the IC50: it is the concentration needed to halve the response being measured. A lower IC50 goes with greater potency in that assay.
